According to paper PMC9181188 (International Journal of Molecular Sciences, 2022):
≈ marks a conversion by molar mass, not a printed value. Read-outs that look alike come from different tables or passages of the source.

How the values were obtained:
[1] = target: T1, S. aureus topoisomerase IV (Staphylococcus aureus, UniProt P0C1S7+P0C1U9); test: S. aureus topoisomerase IV decatenation assay; type: biochemical
T1 construct: purchased Inspiralis
Experimental: The assay was performed using S. aureus topoisomerase IV […] kit (Inspiralis). Kinetoplast DNA (kDNA) was the substrate for topoisomerase IV.

[2] = target: S. aureus DNA gyrase (Staphylococcus aureus, UniProt P0A0K8+P20831); test: biochemical
Sequence of S. aureus DNA gyrase (P20831 whole entry): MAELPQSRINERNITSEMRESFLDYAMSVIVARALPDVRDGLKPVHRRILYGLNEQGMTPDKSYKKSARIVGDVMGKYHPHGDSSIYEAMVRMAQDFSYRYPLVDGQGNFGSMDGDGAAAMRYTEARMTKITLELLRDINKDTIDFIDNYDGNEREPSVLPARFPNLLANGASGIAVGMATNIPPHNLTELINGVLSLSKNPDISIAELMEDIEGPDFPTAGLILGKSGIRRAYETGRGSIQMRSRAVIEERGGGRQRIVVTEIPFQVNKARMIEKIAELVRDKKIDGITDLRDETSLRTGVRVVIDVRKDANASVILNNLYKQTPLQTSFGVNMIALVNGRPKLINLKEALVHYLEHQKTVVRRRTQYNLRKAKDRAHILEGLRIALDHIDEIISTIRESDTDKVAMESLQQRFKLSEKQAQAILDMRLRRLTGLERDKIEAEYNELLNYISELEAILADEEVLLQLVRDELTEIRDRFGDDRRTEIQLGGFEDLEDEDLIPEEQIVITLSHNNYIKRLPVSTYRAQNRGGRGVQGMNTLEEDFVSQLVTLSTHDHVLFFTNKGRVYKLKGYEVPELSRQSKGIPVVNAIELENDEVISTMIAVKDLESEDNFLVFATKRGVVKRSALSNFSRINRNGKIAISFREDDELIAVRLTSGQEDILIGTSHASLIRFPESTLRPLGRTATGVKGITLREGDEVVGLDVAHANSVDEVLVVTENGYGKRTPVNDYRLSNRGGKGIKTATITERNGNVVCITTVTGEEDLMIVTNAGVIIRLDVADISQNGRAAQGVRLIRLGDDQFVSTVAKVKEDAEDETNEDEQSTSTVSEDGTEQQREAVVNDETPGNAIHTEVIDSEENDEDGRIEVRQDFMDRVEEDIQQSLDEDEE
Sequence of S. aureus DNA gyrase (P0A0K8 whole entry): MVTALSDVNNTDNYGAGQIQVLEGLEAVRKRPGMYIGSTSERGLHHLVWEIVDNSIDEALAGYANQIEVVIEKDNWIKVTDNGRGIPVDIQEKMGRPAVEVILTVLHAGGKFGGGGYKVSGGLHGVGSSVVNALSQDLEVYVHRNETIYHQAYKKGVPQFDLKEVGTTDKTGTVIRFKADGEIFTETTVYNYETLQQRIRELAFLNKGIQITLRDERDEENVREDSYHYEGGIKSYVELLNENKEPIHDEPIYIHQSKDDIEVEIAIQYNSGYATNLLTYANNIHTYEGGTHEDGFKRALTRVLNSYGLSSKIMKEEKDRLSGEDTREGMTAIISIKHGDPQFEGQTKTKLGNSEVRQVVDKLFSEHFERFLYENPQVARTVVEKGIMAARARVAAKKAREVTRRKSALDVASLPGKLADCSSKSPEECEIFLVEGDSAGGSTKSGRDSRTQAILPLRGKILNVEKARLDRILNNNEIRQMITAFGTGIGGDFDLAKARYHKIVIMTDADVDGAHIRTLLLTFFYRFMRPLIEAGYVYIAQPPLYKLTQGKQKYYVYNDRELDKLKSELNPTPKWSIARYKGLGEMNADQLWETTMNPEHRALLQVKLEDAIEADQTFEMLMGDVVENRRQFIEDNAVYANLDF
Experimental: The assay was performed using S. aureus DNA Gyrase Supercoiling kit (Inspiralis). […] Samples were vortexed, centrifuged, and 20 µL of the aqueous phase of each sample was loaded onto a 1% agarose gel and left for 30 min prior to electrophoresis to allow diffusion of salt. Electrophoresis was conducted in TAE buffer for 3 h at 50 V. Gels were stained with ethidium bromide and visualized under UV light in a transilluminator (ChemiDoc MP, Bio Rad, Warsaw, Poland).

[3] = system: S. epidermidis T 5501 851/19; test: MIC, clinical S. epidermidis strain; type: cell-based; settings: Staphylococcus epidermidis, T5501851/19, read-out: MIC T 5501 851/19, quinolone-susceptible, 18 h of treatment
[4] = system: SW480 cells; test: MTT assay, SW480; type: cell-based, human; settings: for IC50: human primary colon cancer, 72 h, MTT, mean ± SD; for SI SW480: SI = IC50 for normal cell line (HaCaT)/IC50 cancer cell line
[5] = system: E. coli ATCC 25922; test: MIC, twofold microdilution, standard strain; type: cell-based, Escherichia coli; settings: Escherichia coli, read-out: MIC E. coli ATCC 25922
[6] = system: S. aureus ATCC 25923; test: MIC, twofold microdilution, standard strain; type: cell-based; settings: Staphylococcus aureus, ATCC25923; 18 h of treatment; read-out: MIC S. aureus ATCC 25923
[7] = system: standard staphylococci (S. aureus, S. epidermidis); test: MIC, standard Gram-positive strains as a group; type: cell-based; settings: Staphylococcus aureus; range over standard Gram-positive strains; read-out: MIC against standard staphylococci
[8] = system: S. aureus ATCC 29213; test: MIC, twofold microdilution, standard strain; type: cell-based; settings: Staphylococcus aureus, ATCC29213; 18 h of treatment; read-out: MIC S. aureus ATCC 29213
[9] = system: HaCaT cells; test: MTT assay, HaCaT normal cells; type: cell-based; settings: human immortal keratinocyte cell line, 72 h, mean ± SD
[10] = system: M. tuberculosis strains; test: MABA MIC, mycobacterial strains as a group; type: cell-based; settings: Mycobacterium tuberculosis, read-out: MIC antimycobacterial (strain not specified)
[11] = system: S. epidermidis T 5399 848/19; test: MIC, clinical S. epidermidis strain; type: cell-based; settings: Staphylococcus epidermidis, T5399848/19, quinolone-susceptible, 18 h of treatment
[12] = system: P. aeruginosa ATCC 27853; test: MIC, twofold microdilution, standard strain; type: cell-based; settings: Pseudomonas aeruginosa, ATCC27853; 18 h of treatment; read-out: MIC P. aeruginosa ATCC 27853
[13] = system: S. epidermidis ATCC 35984; test: MIC, twofold microdilution, standard strain; type: cell-based; settings: Staphylococcus epidermidis, ATCC35984; 18 h of treatment; read-out: MIC S. epidermidis ATCC 35984
[14] = system: S. epidermidis KR 4358/2 840/19; test: MIC, clinical S. epidermidis strain; type: cell-based; settings: Staphylococcus epidermidis, KR4358/2840/19; clinical S. epidermidis, quinolone-susceptible, 18 h of treatment; read-out: MIC KR 4358/2 840/19
[15] = system: SW620 cells; test: MTT assay, SW620; type: cell-based, human; settings: for IC50: Homo sapiens, SW-620, 72 h, human metastatic colon cancer, 72 h, MTT, mean ± SD; for SI SW620: SI = IC50 for normal cell line (HaCaT)/IC50 cancer cell line
[16] = system: M. tuberculosis Spec. 192 (Sensitive to Tuberculostatics); test: MABA (microplate Alamar blue assay) MIC; type: cell-based; settings: Mycobacterium tuberculosis, 336 h, read-out: MIC M. tuberculosis Spec. 192 (Sensitive to Tuberculostatics)
[17] = system: S. aureus ATCC 6538; test: MIC, twofold microdilution, standard strain; type: cell-based; settings: Staphylococcus aureus, ATCC6538; 18 h of treatment; read-out: MIC S. aureus ATCC 6538
[18] = system: PC3 cells; test: MTT assay, PC3; type: cell-based, human; settings: for IC50: human metastatic prostate cancer, 72 h, MTT, mean ± SD; for SI PC3: SI = IC50 for normal cell line (HaCaT)/IC50 cancer cell line
[19] = system: M. tuberculosis H37Rv; test: MABA (microplate Alamar blue assay) MIC; type: cell-based; settings: Mycobacterium tuberculosis, 336 h, read-out: MIC M. tuberculosis H37Rv
[20] = system: S. epidermidis KR 4313 834/19; test: MIC, clinical S. epidermidis strain; type: cell-based; settings: Staphylococcus epidermidis, KR4313834/19, quinolone-susceptible, 18 h of treatment
[21] = system: S. epidermidis KR 4047 825/19; test: MIC, clinical S. epidermidis strain; type: cell-based; settings: Staphylococcus epidermidis, KR4047825/19, quinolone-resistant, 18 h of treatment
[22] = system: S. epidermidis KR 4243 829/19; test: MIC, clinical S. epidermidis strain; type: cell-based; settings: Staphylococcus epidermidis, KR4243829/19, quinolone-susceptible, 18 h of treatment
[23] = system: S. aureus NCTC 4163; test: MIC, twofold microdilution, standard strain; type: cell-based; settings: Staphylococcus aureus, NCTC4163; 18 h of treatment; read-out: MIC S. aureus NCTC 4163
[24] = system: S. epidermidis ATCC 12228; test: MIC, twofold microdilution, standard strain; type: cell-based; settings: Staphylococcus epidermidis, ATCC12228; 18 h of treatment; read-out: MIC S. epidermidis ATCC 12228
[25] = system: S. epidermidis T 5253 845/19; test: MIC, clinical S. epidermidis strain; type: cell-based; settings: Staphylococcus epidermidis, T5253845/19, quinolone-resistant, 18 h of treatment
[26] = system: quinolone-susceptible clinical coagulase-negative staphylococci; test: MIC, quinolone-susceptible clinical isolates as a group; type: cell-based; settings: Staphylococcus epidermidis; five quinolone-susceptible isolates; read-out: MIC against quinolone-susceptible clinical isolates

T1 sequence (P0C1U9 whole entry): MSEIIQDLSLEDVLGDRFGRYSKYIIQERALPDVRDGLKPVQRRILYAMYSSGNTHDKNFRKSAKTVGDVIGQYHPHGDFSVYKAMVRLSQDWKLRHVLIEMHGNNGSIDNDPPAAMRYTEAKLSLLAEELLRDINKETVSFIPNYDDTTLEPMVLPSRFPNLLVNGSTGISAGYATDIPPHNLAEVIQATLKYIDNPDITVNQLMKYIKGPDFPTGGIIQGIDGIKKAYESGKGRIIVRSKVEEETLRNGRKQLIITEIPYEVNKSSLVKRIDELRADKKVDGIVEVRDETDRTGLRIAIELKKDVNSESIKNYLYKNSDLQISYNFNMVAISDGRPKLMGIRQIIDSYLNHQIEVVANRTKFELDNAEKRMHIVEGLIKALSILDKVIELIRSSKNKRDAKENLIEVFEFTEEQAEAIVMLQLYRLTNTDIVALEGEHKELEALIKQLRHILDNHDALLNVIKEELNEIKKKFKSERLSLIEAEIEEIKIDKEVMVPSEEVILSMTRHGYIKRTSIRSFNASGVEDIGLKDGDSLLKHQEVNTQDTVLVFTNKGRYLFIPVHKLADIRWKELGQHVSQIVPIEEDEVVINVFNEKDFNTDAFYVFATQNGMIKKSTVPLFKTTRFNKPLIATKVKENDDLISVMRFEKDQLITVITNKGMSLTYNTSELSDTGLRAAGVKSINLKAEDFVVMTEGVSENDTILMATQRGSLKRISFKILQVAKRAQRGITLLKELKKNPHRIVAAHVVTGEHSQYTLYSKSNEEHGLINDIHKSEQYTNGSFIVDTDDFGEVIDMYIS
T1 sequence (P0C1S7 whole entry): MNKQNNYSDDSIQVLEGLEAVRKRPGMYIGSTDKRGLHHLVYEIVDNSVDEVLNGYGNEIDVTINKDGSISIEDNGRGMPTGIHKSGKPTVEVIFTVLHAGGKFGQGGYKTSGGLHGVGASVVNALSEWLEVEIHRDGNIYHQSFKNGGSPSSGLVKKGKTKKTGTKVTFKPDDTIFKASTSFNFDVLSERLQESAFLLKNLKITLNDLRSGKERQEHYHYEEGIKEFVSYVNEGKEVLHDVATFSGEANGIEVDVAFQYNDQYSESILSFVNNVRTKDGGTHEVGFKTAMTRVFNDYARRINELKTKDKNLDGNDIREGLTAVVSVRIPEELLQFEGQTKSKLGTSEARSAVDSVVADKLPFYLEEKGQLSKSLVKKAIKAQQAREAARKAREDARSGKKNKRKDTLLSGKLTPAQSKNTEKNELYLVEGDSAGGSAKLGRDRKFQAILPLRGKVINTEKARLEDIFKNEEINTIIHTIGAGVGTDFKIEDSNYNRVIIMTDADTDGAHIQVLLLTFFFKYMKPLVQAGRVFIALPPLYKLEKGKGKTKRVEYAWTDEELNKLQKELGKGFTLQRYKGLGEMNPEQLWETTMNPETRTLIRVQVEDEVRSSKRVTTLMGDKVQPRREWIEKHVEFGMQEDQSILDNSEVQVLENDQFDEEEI

| Structure (SMILES) | MIC [3] [µg/mL] | IC50 ([4]; Homo sapiens, SW480, 72 h) [µM] | SI SW480 [4] | MIC [6] [µg/mL] | MIC [7] [µg/mL] | MIC [8] [µg/mL] | IC50 [9] [µM] | MIC [11] [µg/mL] | MIC [12] [µg/mL] | MIC [13] [µg/mL] | MIC [14] [µg/mL] | IC50 [15] [µM] | SI SW620 [15] | MIC [17] [µg/mL] | IC50 ([18]; Homo sapiens, PC-3, 72 h) [µM] | SI PC3 [18] | MIC [20] [µg/mL] | MIC [21] [µg/mL] | MIC [22] [µg/mL] | MIC [23] [µg/mL] | also measured |
| --- | --- | --- | --- | --- | --- | --- | --- | --- | --- | --- | --- | --- | --- | --- | --- | --- | --- | --- | --- | --- | --- |
| COc1c(N2CC3CCCN(C(=O)/C=C(\C)CCC=C(C)C)C3C2)c(F)cc2c(=O)c(C(=O)O)cn(C3CC3)c12 (stereo not shown) [Compound 3m, 1-Cyclopropyl-7-{1-(2E)-(3,7-dimethyl-octa-2,6-dienoyl)-octahydro-pyrrolo[3,4-b]pyridin-6-yl}-6-fluoro-8-methoxy-4-oxo-1,4-dihydro-quinoline-3-carboxylic acid] | 16 (≈ 29 µM) | 26.7 ± 1.4 | 3.0 | 8 (≈ 14.5 µM) | 8 to 32 (≈ 14.5 to 58 µM) | 8 (≈ 14.5 µM) | 81.2 ± 2.6 | 8 (≈ 14.5 µM) | > 64 | 8 (≈ 14.5 µM) | 8 (≈ 14.5 µM) | 38.2 ± 4.1 | 2.1 | 8 (≈ 14.5 µM) | 23.5 ± 4.7 | 3.5 | 16 (≈ 29 µM) | 16 (≈ 29 µM) | 8 (≈ 14.5 µM) | 8 (≈ 14.5 µM) | IC50 [1]: > 116 µM; IC50 [2]: > 116 µM; MIC ([5]; ATCC25922, 18 h): 128 µg/mL (≈ 232 µM); MIC [10]: ≥ 128 µg/mL; MIC [16]: 128 µg/mL (≈ 232 µM); MIC [19]: 128 µg/mL (≈ 232 µM); MIC [24]: 16 µg/mL (≈ 29 µM); MIC [25]: 8 µg/mL (≈ 14.5 µM) |
| C=CCCCCC(=O)N1CCCC2CN(c3c(F)cc4c(=O)c(C(=O)O)cn(C5CC5)c4c3OC)CC21 (stereo not shown) [Compound 10m, 1-Cyclopropyl-6-fluoro-7-(1-hept-6-enoyl-octahydro-pyrrolo[3,4-b]pyridin-6-yl)-8-methoxy-4-oxo-1,4-dihydro-quinoline-3-carboxylic acid] | 4 (≈ 7.82 µM) | 5.8 ± 0.8 | 15.1 | 2 (≈ 3.91 µM) | 2 to 4 (≈ 3.91 to 7.82 µM) | 2 (≈ 3.91 µM) | 87.6 ± 4.5 | 2 (≈ 3.91 µM) | > 512 | 2 (≈ 3.91 µM) | 4 (≈ 7.82 µM) | 6.2 ± 1.1 | 14.1 | 2 (≈ 3.91 µM) | < 5 | 19.0 | 2 (≈ 3.91 µM) | 16 (≈ 31.3 µM) | 2 (≈ 3.91 µM) | 2 (≈ 3.91 µM) | MIC [26]: 2 to 8 µg/mL (≈ 3.91 to 15.6 µM); MIC ([5]; ATCC25922, 18 h of treatment): 32 µg/mL (≈ 62.5 µM); MIC ([16]; 2 weeks of treatment): 32 µg/mL (≈ 62.5 µM); IC50 [18]: 4.6 ± 1.1 µM; MIC ([19]; 2 weeks of treatment): 32 µg/mL (≈ 62.5 µM); MIC [24]: 4 µg/mL (≈ 7.82 µM); MIC [25]: 16 µg/mL (≈ 31.3 µM) |
| CCCCC/C=C\C/C=C\CCCCCCCC(=O)N1CCCC2CN(c3c(F)cc4c(=O)c(C(=O)O)cn(C5CC5)c4c3OC)CC21 (stereo not shown) [Compound 11m, 1-Cyclopropyl-6-fluoro-8-methoxy-7-{1-(9Z,12Z)-octadeca-9,12-dienoyl-octahydropyrrolo-[3,4-b]pyridin-6-yl)-4-oxo-1,4-dihydro-quinoline-3-carboxylic acid] | 512 (≈ 771 µM) | < 5 | 19.0 | > 512 | > 32 | > 512 | 91.4 ± 5.3 | 512 (≈ 771 µM) | > 512 | > 512 | 128 (≈ 193 µM) | 7.3 ± 0.9 | 12.5 | > 512 | < 5 | 25.4 | 64 (≈ 96.4 µM) | 512 (≈ 771 µM) | 256 (≈ 386 µM) | > 512 | IC50 [4]: 4.8 ± 1.3 µM; MIC ([5]; ATCC25922, 18 h of treatment): > 512 µg/mL; MIC ([10]; summary over strains): ≥ 128 µg/mL; MIC ([16]; 2 weeks of treatment): 128 µg/mL (≈ 193 µM); IC50 [18]: 3.6 ± 1.1 µM; MIC ([19]; 2 weeks of treatment): 512 µg/mL (≈ 771 µM); MIC [24]: > 512 µg/mL; MIC [25]: 512 µg/mL (≈ 771 µM) |
| CCCCC/C=C\C/C=C\C/C=C\CCCCC(=O)N1CCCC2CN(c3c(F)cc4c(=O)c(C(=O)O)cn(C5CC5)c4c3OC)CC21 (stereo not shown) [Compound 12m, 1-Cyclopropyl-6-fluoro-8-methoxy-7-{1-(6Z,9Z,12Z)-octadeca-6,9,12-trienoyl-octahydro-pyrrolo[3,4-b]pyridin-6-yl}-4-oxo-1,4-dihydro-quinoline-3-carboxylic acid] | 32 (≈ 48.3 µM) | 16.8 ± 2.3 | 5.3 | 64 (≈ 96.7 µM) | > 32 | 64 (≈ 96.7 µM) | 88.7 ± 3.3 | 32 (≈ 48.3 µM) | > 512 | 32 (≈ 48.3 µM) | 512 (≈ 774 µM) | 18.3 ± 3.2 | 4.8 | 64 (≈ 96.7 µM) | 14.7 ± 2.3 | 6.0 | 256 (≈ 387 µM) | 256 (≈ 387 µM) | 32 (≈ 48.3 µM) | 64 (≈ 96.7 µM) | MIC ([5]; ATCC25922, 18 h of treatment): 128 µg/mL (≈ 193 µM); MIC ([10]; summary over strains): 64 µg/mL (≈ 96.7 µM); MIC ([16]; 2 weeks of treatment): 64 µg/mL (≈ 96.7 µM); MIC ([19]; 2 weeks of treatment): 64 µg/mL (≈ 96.7 µM); MIC [24]: 64 µg/mL (≈ 96.7 µM); MIC [25]: 512 µg/mL (≈ 774 µM) |
